Laboratory results as given in patent US3933805A, “S(IV)-benzo-1,2,4-thiadiazine compounds and process for their preparation” (Biersdorf, Akteingesellschaft, priority 1973, dated 1976).
In brackets after ≈: the same amount, converted by molar mass.

Tests used:
[1] = tested on: guinea pig small intestine; experiment: Spasmolytic effect on guinea pig small intestine in vitro against Acetylcholine; assay type: cell-based; settings: Cavia porcellus, Acetylcholine 0.1 γ/ml, read-out: ED50, spasmolytic effect against Acetylcholine
Source text: (§1) Spasmolytic effect on guinea pig small intestine (1)
(§2) (1) R. Magnus, Pflugers Arch. ges. Physiol. 102, 123 (1904)

[2] = tested on: guinea pig small intestine; experiment: Spasmolytic effect on guinea pig small intestine in vitro against Barium chloride; assay type: cell-based; settings: Cavia porcellus, Barium chloride 200 γ/ml, read-out: ED50, spasmolytic effect against Barium chloride
Source text: as §1, §2

[3] = tested on: guinea pig small intestine; experiment: Spasmolytic effect on guinea pig small intestine in vitro against Histamine; assay type: cell-based; settings: Cavia porcellus, Histamine 0.1 γ/ml, read-out: ED50, spasmolytic effect against Histamine
Source text: as §1, §2

pentobarbital sleep = experiment: Prolongation of pentobarbital sleep; assay type: in vivo; settings: Mus musculus, po, mice, p.o., read-out: ED50, increase in sleeping (prolongation of pentobarbital sleep)
Source text: (§3) Central depressing effects in mice (ED50 in mg/kg p.o.)
(§4) Example spontaneous Increase in net^(3)
(2) Prolongation of pentobarbital sleep, R.A. Turner, Screening Methods i
Pharmacology, N.Y. 1965, p. 90.

spontaneous mobility = experiment: Decrease of spontaneous mobility; assay type: in vivo; settings: Mus musculus, po; mice
Source text: as §3, §4
(1) Method described in R.A. Turner, Screening Methods in Pharmacology, […]

[4] = tested on: Minimum Electroshock Threshold; experiment: Minimum Electroshock Threshold (increase in net); assay type: in vivo; settings: Mus musculus, po; mice
Source text: as §3, §4
(3) Minimum Electroshock Threshold, test arrangement according to Brown,
Schiffmann, Swinyard and Goodman; J.Pharmacol. Exptl. Ther. 107, 273

Row | IC50 [1] | IC50 [2] | IC50 [3] | SMILES | ED50 (pentobarbital sleep) | ED50 (spontaneous mobility) | ED50 [4]
1 | 1.1 µg/mL (≈ 2.72 µM) | 0.9 µg/mL (≈ 2.23 µM) | 0.08 µg/mL (≈ 0.198 µM) | CCCN(CCC)CC1=Nc2ccc(Cl)cc2S(=O)(c2cccc(C)c2)=N1 (stereo not drawn) [Example 23] |  |  | 
2 | 2.2 µg/mL (≈ 5.18 µM) | 0.72 µg/mL (≈ 1.7 µM) | 0.04 µg/mL (≈ 0.0943 µM) | CCCN(CCC)CC1=Nc2cccc(Cl)c2S(=O)(c2ccc(Cl)cc2)=N1 (stereo not drawn) [Example 24] | 20 mg/kg | 16 mg/kg | 115 mg/kg
3 | 4 µg/mL (≈ 11.3 µM) | 1.2 µg/mL (≈ 3.38 µM) |  | CCCN(CCC)CC1=Nc2ccccc2S(=O)(c2ccccc2)=N1 (stereo not drawn) [Example 18] | 3.1 mg/kg | 186 mg/kg | 134 mg/kg
4 | 2.6 µg/mL (≈ 6.67 µM) |  |  | CCCN(CCC)CC1=Nc2ccccc2S(=O)(c2ccc(Cl)cc2)=N1 (stereo not drawn) [Example 20] | 2 mg/kg | 31 mg/kg | > 250 mg/kg
5 |  |  |  | CCCN(CCC)CC1=Nc2ccc(Cl)cc2S(=O)(c2ccccc2)=N1 (stereo not drawn) [Example 1, 7-Chloro-3-di-(n-propyl)aminomethyl-1-phenyl-benzo-1,2,4-thiadiazine-1 oxide] | 22 mg/kg | 98 mg/kg | 38 mg/kg
6 | 2.7 µg/mL (≈ 7.31 µM) | 2.2 µg/mL (≈ 5.95 µM) | 0.96 µg/mL (≈ 2.6 µM) | CCCN(CCC)CC1=Nc2cc(C)ccc2S(=O)(c2ccccc2)=N1 (stereo not drawn) [Example 15] | 8.5 mg/kg | 76 mg/kg | > 500 mg/kg
7 | 0.69 µg/mL (≈ 1.71 µM) | 0.69 µg/mL (≈ 1.71 µM) |  | CCCN(CCC)CC1=Nc2ccc(C)cc2S(=O)(c2ccc(Cl)cc2)=N1 (stereo not drawn) [Example 25] | > 250 mg/kg | 31 mg/kg | 21 mg/kg
8 |  |  |  | CN(C)CC1=Nc2ccc(Cl)cc2S(=O)(c2ccccc2)=N1 (stereo not drawn) [Example 8] | 16 mg/kg | 96 mg/kg | 46 mg/kg
9 |  |  |  | O=S1(c2ccccc2)=NC(CNCCO)=Nc2ccccc21 (stereo not drawn) [Example 19] | 2 mg/kg | > 250 mg/kg | > 500 mg/kg
10 |  |  |  | O=S1(c2ccccc2)=NC(CNCCO)=Nc2ccc(Cl)cc21 (stereo not drawn) [Example 7] | 15 mg/kg | 23 mg/kg | 126 mg/kg
11 |  |  |  | O=S1(c2ccc(Cl)cc2)=NC(CNCCO)=Nc2ccccc21 (stereo not drawn) [Example 21] | 9 mg/kg | 46 mg/kg | 
12 |  |  |  | CCN(CC)CC1=Nc2ccc(Cl)cc2S(=O)(c2ccccc2)=N1 (stereo not drawn) [Example 4] | 46 mg/kg | 78 mg/kg | 28 mg/kg
13 |  |  |  | CCCN(CCC)CC1=Nc2ccccc2S(=O)(c2ccc(N)cc2)=N1 (stereo not drawn) [Example 2, 3-Di-(n-propyl)-aminomethyl-1-(4'-aminophenyl)-benzo-1,2,4-thiadiazine-1-oxide] | 8 mg/kg | > 250 mg/kg | 
14 | 0.9 µg/mL (≈ 2.41 µM) | 1.7 µg/mL (≈ 4.55 µM) |  | O=S1(c2ccccc2)=NC(CN2CCCCC2)=Nc2ccc(Cl)cc21 (stereo not drawn) [Example 3] | 34 mg/kg | 84 mg/kg | 34 mg/kg
15 | 2.2 µg/mL (≈ 5.18 µM) | 0.72 µg/mL (≈ 1.7 µM) |  | CCCN(CCC)CC1=Nc2ccc(Cl)cc2S(=O)(c2ccc(Cl)cc2)=N1 (stereo not drawn) [Example 22] | 16 mg/kg | 28 mg/kg | 
16 |  |  |  | O=S1(c2ccccc2)=NC(CN2CCCC2)=Nc2ccc(Cl)cc21 (stereo not drawn) [Example 6] | 38 mg/kg | 70 mg/kg | 68 mg/kg
17 |  |  |  | CCNCC1=Nc2ccc(Cl)cc2S(=O)(c2ccccc2)=N1 (stereo not drawn) [Example 13] | 25 mg/kg | 240 mg/kg | 42 mg/kg
18 |  |  |  | COCCNCC1=Nc2ccc(Cl)cc2S(=O)(c2ccccc2)=N1 (stereo not drawn) [Example 9] | 58 mg/kg | > 250 mg/kg | 32 mg/kg
19 |  |  |  | COCCN(C)CC1=Nc2ccc(Cl)cc2S(=O)(c2ccccc2)=N1 (stereo not drawn) [Example 14] | 28 mg/kg | > 250 mg/kg | 46 mg/kg
20 |  |  |  | O=S1(c2ccccc2)=NC(CN2CCOCC2)=Nc2ccc(Cl)cc21 (stereo not drawn) [Example 5] | 46 mg/kg | > 250 mg/kg | 92 mg/kg
